Data published in patent US20180186742A1, “PICOLINAMIDES AS FUNGICIDES” (Dow AgroSciences LLC, priority 2017, published 2018).
Read-outs that look alike come from different tables or passages of the source.

Columns and labels:
Zymoseptoria tritici = test: Leaf blotch of wheat (SEPTTR), disease control on wheat seedlings; type: in vivo; details: for pest or weed control at 121.5 g/ha: low volume application at 121.5 g/H; for pest or weed control at 100 ppm: high volume application at 100 ppm
Procedure: Technical grades of materials were dissolved in acetone, which were then mixed with nine volumes of water containing 110 ppm Triton X-100. The fungicide solutions were applied onto wheat seedlings using an automated booth sprayer to run-off. All sprayed plants were allowed to air dry prior to further handling. All fungicides were evaluated using the aforementioned method for their activity vs. all target diseases, unless stated otherwise. Wheat leaf blotch and brown rust activity were also evaluated using track spray applications, in which case the fungicides were formulated as EC formulations, containing 0.1% Trycol 5941 in the spray solutions. Wheat plants (variety Yuma) were grown from seed in a greenhouse in 50% mineral soil/50% soil-less Metro mix until the first leaf was fully emerged, with 7-10 seedlings per pot. These plants were inoculated with an aqueous spore suspension of Zymoseptoria tritici either prior to or after fungicide treatments. After inoculation the plants were kept in 100% relative humidity (one day in a dark dew chamber followed by two to three days in a lighted dew chamber at 20° C.) to permit spores to germinate and infect the leaf. The plants were then transferred to a greenhouse set at 20° C. for disease to develop. When disease symptoms were fully expressed on the 1st leaves of untreated plants, infection levels were assessed on a scale of 0 to 100 percent disease severity. Percent disease control was calculated using the ratio of disease severity on treated plants relative to untreated plants.

Puccinia triticina = test: Wheat brown rust (PUCCRT), disease control on wheat seedlings; type: in vivo; details: for pest or weed control at 121.5 g/ha: low volume application at 121.5 g/H; for pest or weed control at 100 ppm: high volume application at 100 ppm
Procedure: Technical grades of materials were dissolved in acetone, which were then mixed with nine volumes of water containing 110 ppm Triton X-100. The fungicide solutions were applied onto wheat seedlings using an automated booth sprayer to run-off. All sprayed plants were allowed to air dry prior to further handling. All fungicides were evaluated using the aforementioned method for their activity vs. all target diseases, unless stated otherwise. Wheat leaf blotch and brown rust activity were also evaluated using track spray applications, in which case the fungicides were formulated as EC formulations, containing 0.1% Trycol 5941 in the spray solutions. Wheat plants (variety Yuma) were grown from seed in a greenhouse in 50% mineral soil/50% soil-less Metro mix until the first leaf was fully emerged, with 7-10 seedlings per pot. These plants were inoculated with an aqueous spore suspension of Puccinia triticina either prior to or after fungicide treatments. After inoculation the plants were kept in a dark dew room at 22° C. with 100% relative humidity overnight to permit spores to germinate and infect the leaf. The plants were then transferred to a greenhouse set at 24° C. for disease to develop. Fungicide formulation, application and disease assessment followed the procedures as described in the Example A.

[1] = 24 h, 1 Day Protectant, wheat leaf blotch, read-out: SEPTTR 1DP disease control, LV activity
[2] = 72 h, 3 Day Curative, wheat leaf blotch, read-out: SEPTTR 3DC disease control, LV activity
[3] = 24 h, 1 Day Protectant, wheat brown rust, read-out: PUCCRT 1DP disease control, LV activity
[4] = 72 h, 3 Day Curative, wheat brown rust, read-out: PUCCRT 3DC disease control, LV activity
[5] = 24 h, 1 Day Protectant, read-out: SEPTTR disease control, 1DP, HV activity
[6] = 72 h, 3 Day Curative, read-out: SEPTTR disease control, 3DC, HV activity
[7] = 24 h, 1 Day Protectant, read-out: PUCCRT disease control, 1DP, HV activity
[8] = 72 h, 3 Day Curative, read-out: PUCCRT disease control, 3DC, HV activity
[9] = 24 h, 1 Day Protectant, read-out: SEPTTR disease control, 1DP, LV activity
[10] = 72 h, 3 Day Curative, read-out: SEPTTR disease control, 3DC, LV activity
[11] = 24 h, 1 Day Protectant, read-out: PUCCRT disease control, 1DP, LV activity
[12] = 72 h, 3 Day Curative, read-out: PUCCRT disease control, 3DC, LV activity

Structure (SMILES)	pest or weed control at 100 ppm (Zymoseptoria tritici; [5]) [%]	pest or weed control at 100 ppm (Zymoseptoria tritici; [6]) [%]	pest or weed control at 100 ppm (Puccinia triticina; [7]) [%]	pest or weed control at 100 ppm (Puccinia triticina; [8]) [%]	other results
COc1ccnc(C(=O)N[C@@H](C)C(=O)O[C@@H](C)[C@H](c2ccc(Cl)cc2F)C(C)C)c1OC(C)=O [Compound 389]					pest or weed control at 121.5 g/ha (Zymoseptoria tritici; [1]): > 80%; pest or weed control at 121.5 g/ha (Zymoseptoria tritici; [2]): > 80%; pest or weed control at 121.5 g/ha (Puccinia triticina; [3]): > 80%; pest or weed control at 121.5 g/ha (Puccinia triticina; [4]): > 80%
COc1ccnc(C(=O)N[C@@H](C)C(=O)O[C@@H](C)[C@@H](c2ccc(C)cc2C)C2CCCC2)c1O [Compound 132]	> 80	< 80	> 80	> 80	
COc1ccnc(C(=S)N[C@@H](C)C(=O)O[C@@H](C)[C@@H](c2ccccc2)C2CCCC2)c1O [Compound 115]	< 80	< 0	< 0	< 0	
COc1ccnc(C(=O)N[C@H](C(=O)O[C@@H](C)[C@H](c2ccc(F)cc2C)C(C)C)C(C)C)c1O [Compound 318]	< 80	< 80	> 80	> 80	
COc1ccccc1[C@H](C(C)C)[C@H](C)OC(=O)[C@H](C)NC(=O)c1nccc(OC)c1OC(C)=O [Compound 261]					pest or weed control at 121.5 g/ha (Zymoseptoria tritici; [9]): < 80%; pest or weed control at 121.5 g/ha (Zymoseptoria tritici; [10]): < 80%; pest or weed control at 121.5 g/ha (Puccinia triticina; [11]): > 80%; pest or weed control at 121.5 g/ha (Puccinia triticina; [12]): < 80%
CCC(C)[C@H](c1ccc(F)cc1C)[C@H](C)OC(=O)[C@H](C)NC(=O)c1nccc(OC)c1O (some centres unmarked) [Compound 120]	< 0	< 80	> 80	< 0	
COc1ccnc(C(=O)N[C@@H](C)C(=O)O[C@@H](C)[C@H](c2cc(F)ccc2C)C(C)C)c1O [Compound 324]	< 80	< 80	> 80	> 80	
COc1ccnc(C(=O)N[C@@H](C)C(=O)O[C@@H](C)[C@H](c2ccc3c(c2)OCO3)C(C)C)c1O [Compound 334]	< 80	< 0	> 80	> 80	
COc1ccnc(C(=O)N[C@@H](C)C(=O)O[C@@H](C)[C@H](c2ccc(F)cc2)C2CC2)c1OCOC(C)=O [Compound 171]					pest or weed control at 121.5 g/ha (Zymoseptoria tritici; [9]): > 80%; pest or weed control at 121.5 g/ha (Zymoseptoria tritici; [10]): > 80%; pest or weed control at 121.5 g/ha (Puccinia triticina; [11]): > 80%; pest or weed control at 121.5 g/ha (Puccinia triticina; [12]): > 80%
COc1ccnc(C(=O)N[C@@H](C)C(=O)O[C@@H](C)[C@H](c2ccc(F)c(C)c2)C(C)C)c1OC(C)=O [Compound 250]					pest or weed control at 121.5 g/ha (Zymoseptoria tritici; [9]): > 80%; pest or weed control at 121.5 g/ha (Puccinia triticina; [11]): > 80%; pest or weed control at 121.5 g/ha (Puccinia triticina; [12]): > 80%
CCC(CC)[C@@H](c1ccc(F)cc1C)[C@H](C)OC(=O)[C@H](C)NC(=O)c1nccc(OC)c1O [Compound 125]	> 80	> 80	> 80	< 80	
COc1ccnc(C(=S)N[C@@H](C)C(=O)OC(C)[C@H](c2ccccc2)C2CCCC2)c1OC(C)=O (some centres unmarked) [Compound 176]					pest or weed control at 121.5 g/ha (Zymoseptoria tritici; [9]): > 80%; pest or weed control at 121.5 g/ha (Zymoseptoria tritici; [10]): > 80%; pest or weed control at 121.5 g/ha (Puccinia triticina; [11]): > 80%; pest or weed control at 121.5 g/ha (Puccinia triticina; [12]): < 80%
COc1ccnc(C(=O)N[C@@H](C)C(=O)O[C@@H](C)[C@@H](c2ccc(F)cc2C)C2CCCC2)c1O [Compound 118]	< 80	< 80	> 80	< 80	
COc1ccnc(C(=O)N[C@@H](C)C(=O)O[C@@H](C)[C@H](c2ccc(F)cc2C)C2CCC2)c1O [Compound 127]	> 80	< 80	> 80	> 80	
CCC(C)[C@@H](c1ccccc1C)[C@H](C)OC(=O)[C@H](C)NC(=O)c1nccc(OC)c1OC(C)=O (some centres unmarked) [Compound 384]					pest or weed control at 121.5 g/ha (Zymoseptoria tritici; [1]): > 80%; pest or weed control at 121.5 g/ha (Zymoseptoria tritici; [2]): > 80%; pest or weed control at 121.5 g/ha (Puccinia triticina; [3]): > 80%; pest or weed control at 121.5 g/ha (Puccinia triticina; [4]): > 80%
